Data reported in ChEMBL document CHEMBL5257049, “Interconvertible Pyridone Alkaloids from the Marine-Derived Fungus Penicillium oxalicum QDU1” (J Nat Prod, 2023).

system: RAW264.7; assay: Antiinflammatory activity in mouse RAW264.7 cells assessed as inhibition of LPS-stimulated NO production preincubated for 3 hrs followed by LPS stimulation and measured after 24 hrs by Griess reagent based assay; format: functional, cell-based

Row | IC50 [µM] | Compound
1 | 17 | CC[C@H](C)/C=C(C)/C=C/[C@H]1Oc2c(-c3ccc(O)cc3)c[nH]c(=O)c2[C@H](O)[C@H]1C
2 | 9.2 | CC[C@H](C)/C=C(C)/C=C/[C@H]1Oc2c(-c3ccc(O)cc3)c[nH]c(=O)c2[C@H](OC)[C@H]1C
3 | 19 | CC[C@H](C)/C=C(C)/C=C/[C@H]1Oc2c(-c3ccc(O)cc3)c[nH]c(=O)c2[C@@H](O)[C@@H]1C
4 | > 20 | CC(/C=C/[C@@H]1Oc2c(-c3ccc(O)cc3)c[nH]c(=O)c2[C@@H](O)[C@H]1C)=C\[C@H](C)[C@@H](C)O
5 | > 20 | CC(/C=C/[C@@H]1Oc2c(-c3ccc(O)cc3)c[nH]c(=O)c2[C@@H](O)[C@H]1C)=C\[C@H](C)[C@H](C)O
6 | > 20 | CC[C@H](C)/C=C(C)/C=C/[C@H]1Oc2c(-c3ccc(O)cc3)c[nH]c(=O)c2[C@H](OC)[C@@H]1C
7 | > 20 | CC[C@H](C)/C=C(C)/C=C/[C@H]1Oc2c(-c3ccc(O)cc3)c[nH]c(=O)c2[C@H](O)[C@@H]1C
8 | > 20 | CC(/C=C/[C@@H]1Oc2c(-c3ccc(O)cc3)c[nH]c(=O)c2[C@H](O)[C@H]1C)=C\[C@H](C)[C@@H](C)O

The next lines start with the compound.

Row | Compound | IC50 [µM]
9 | CC(/C=C/C=C(C)/C(O)=C1/C(=O)N/C(=C\c2ccc(O)cc2)C1=O)=C\[C@H](C)[C@@H](C)O | 14
10 | CO[C@@H]1c2c(c(-c3ccc(O)cc3)c[nH]c2=O)O[C@H](/C=C/C(C)=C/[C@H](C)[C@@H](C)O)[C@@H]1C | 17
11 | CO[C@@H]1c2c(c(-c3ccc(O)cc3)c[nH]c2=O)O[C@@H](/C=C/C(C)=C/[C@H](C)[C@@H](C)O)[C@@H]1C | 15
12 | CC(/C=C/C=C(C)/C(O)=C1/C(=O)N[C@H]([C@@H](O)c2ccc(O)cc2)C1=O)=C\[C@H](C)[C@@H](C)O | > 20
13 | CO[C@@H]1c2c(c(-c3ccc(O)cc3)c[nH]c2=O)O[C@@H](/C=C/C(C)=C/[C@H](C)[C@H](C)O)[C@@H]1C | 18
14 | CC(/C=C/C=C(C)/C(O)=C1/C(=O)N[C@@H]([C@@H](O)c2ccc(O)cc2)C1=O)=C\[C@H](C)[C@@H](C)O | > 20
15 | COc1ccc2c(c1)c(CC(=O)O)c(C)n2C(=O)c1ccc(Cl)cc1 [INDOMETHACIN] | 0.62
